Columns and labels:
Assay in all cases: KINOMEscan competition binding
Conditions in all cases: compound 10.0 µM
[1] = system: ABL1 (human), P00519 [M351T]
ACVR2B (human) = ACVR2B (human) (UniProt Q13705)
ALK (human) = ALK (human) (UniProt Q9UM73)
CAMKK2 (human) = CAMKK2 (human) (UniProt Q96RR4)
CDK11B (human) = CDK11B (human) (UniProt P21127)
CDKL2 (human) = CDKL2 (human) (UniProt Q92772)
CHEK1 (human) = CHEK1 (human) (UniProt O14757)
CaMK1 (human) = CaMK1 (human) (UniProt Q14012)
DAPK1 (human) = DAPK1 (human) (UniProt P53355)
Chain of DAPK1 (human) (P53355 whole entry, looked up): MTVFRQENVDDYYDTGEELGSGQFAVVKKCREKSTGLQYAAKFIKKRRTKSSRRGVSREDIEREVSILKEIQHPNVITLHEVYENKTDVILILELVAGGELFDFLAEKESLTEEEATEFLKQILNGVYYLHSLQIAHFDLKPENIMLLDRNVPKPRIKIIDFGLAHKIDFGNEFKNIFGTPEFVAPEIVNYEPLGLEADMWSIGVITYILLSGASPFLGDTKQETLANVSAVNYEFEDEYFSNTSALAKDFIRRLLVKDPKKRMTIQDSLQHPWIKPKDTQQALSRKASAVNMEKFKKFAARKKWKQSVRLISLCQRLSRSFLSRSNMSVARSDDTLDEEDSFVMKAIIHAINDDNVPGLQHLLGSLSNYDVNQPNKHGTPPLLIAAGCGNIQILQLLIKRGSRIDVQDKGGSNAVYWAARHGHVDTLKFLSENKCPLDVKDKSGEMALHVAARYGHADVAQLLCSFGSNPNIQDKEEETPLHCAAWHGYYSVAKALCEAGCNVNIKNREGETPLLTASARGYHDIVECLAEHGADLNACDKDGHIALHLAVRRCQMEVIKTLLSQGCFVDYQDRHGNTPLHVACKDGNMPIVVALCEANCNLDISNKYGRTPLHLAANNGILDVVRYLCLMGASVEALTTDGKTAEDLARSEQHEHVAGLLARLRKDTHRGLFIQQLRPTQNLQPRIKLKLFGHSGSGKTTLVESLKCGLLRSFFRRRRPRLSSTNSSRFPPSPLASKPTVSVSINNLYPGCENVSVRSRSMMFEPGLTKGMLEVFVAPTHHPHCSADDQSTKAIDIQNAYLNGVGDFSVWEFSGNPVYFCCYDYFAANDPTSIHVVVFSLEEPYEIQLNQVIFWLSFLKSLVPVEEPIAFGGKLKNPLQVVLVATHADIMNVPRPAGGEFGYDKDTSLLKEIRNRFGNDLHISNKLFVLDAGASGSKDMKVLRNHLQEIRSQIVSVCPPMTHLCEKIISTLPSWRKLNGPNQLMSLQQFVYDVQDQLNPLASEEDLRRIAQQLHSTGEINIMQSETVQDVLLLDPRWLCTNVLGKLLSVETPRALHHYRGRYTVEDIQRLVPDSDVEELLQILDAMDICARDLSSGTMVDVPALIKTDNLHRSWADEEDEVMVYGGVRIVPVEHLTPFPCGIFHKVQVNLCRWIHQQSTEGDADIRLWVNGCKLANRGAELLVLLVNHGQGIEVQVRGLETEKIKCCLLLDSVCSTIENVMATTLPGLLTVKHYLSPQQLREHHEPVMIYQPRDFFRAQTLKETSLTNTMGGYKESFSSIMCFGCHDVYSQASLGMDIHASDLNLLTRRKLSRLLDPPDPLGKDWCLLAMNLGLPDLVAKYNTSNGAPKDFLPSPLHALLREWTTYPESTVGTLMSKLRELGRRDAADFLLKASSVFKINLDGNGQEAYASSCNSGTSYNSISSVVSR

DAPK3 (human) = DAPK3 (human) (UniProt O43293)
DDR2 (human) = DDR2 (human) (UniProt Q16832)
EPHA2 (human) = EPHA2 (human) (UniProt P29317)
EPHB3 (human) = EPHB3 (human) (UniProt P54753)
FER (human) = FER (human) (UniProt P16591)
FGR (human) = FGR (human) (UniProt P09769)
GAK (human) = GAK (human) (UniProt O14976)
GSK3A (human) = GSK3A (human) (UniProt P49840)
IGF1R (human) = IGF1R (human) (UniProt P08069)
[2] = system: KIT (human), P10721 [D816V]
LIMK2 (human) = LIMK2 (human) (UniProt P53671)
MAP2K1 (human) = MAP2K1 (human) (UniProt Q02750)
Chain of MAP2K1 (human) (Q02750 whole entry, looked up): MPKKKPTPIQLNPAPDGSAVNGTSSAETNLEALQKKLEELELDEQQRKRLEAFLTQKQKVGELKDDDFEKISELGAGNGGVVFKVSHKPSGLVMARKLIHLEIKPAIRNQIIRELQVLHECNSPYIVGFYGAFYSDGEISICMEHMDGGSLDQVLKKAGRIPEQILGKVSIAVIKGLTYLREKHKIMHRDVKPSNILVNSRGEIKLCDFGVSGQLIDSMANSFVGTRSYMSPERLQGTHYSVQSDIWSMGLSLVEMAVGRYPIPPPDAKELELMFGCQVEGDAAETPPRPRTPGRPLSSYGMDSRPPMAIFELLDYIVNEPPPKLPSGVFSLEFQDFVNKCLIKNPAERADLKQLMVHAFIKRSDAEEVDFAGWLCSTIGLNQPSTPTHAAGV

MAP3K5 (human) = MAP3K5 (human) (UniProt Q99683)
Chain of MAP3K5 (human) (Q99683 whole entry, looked up): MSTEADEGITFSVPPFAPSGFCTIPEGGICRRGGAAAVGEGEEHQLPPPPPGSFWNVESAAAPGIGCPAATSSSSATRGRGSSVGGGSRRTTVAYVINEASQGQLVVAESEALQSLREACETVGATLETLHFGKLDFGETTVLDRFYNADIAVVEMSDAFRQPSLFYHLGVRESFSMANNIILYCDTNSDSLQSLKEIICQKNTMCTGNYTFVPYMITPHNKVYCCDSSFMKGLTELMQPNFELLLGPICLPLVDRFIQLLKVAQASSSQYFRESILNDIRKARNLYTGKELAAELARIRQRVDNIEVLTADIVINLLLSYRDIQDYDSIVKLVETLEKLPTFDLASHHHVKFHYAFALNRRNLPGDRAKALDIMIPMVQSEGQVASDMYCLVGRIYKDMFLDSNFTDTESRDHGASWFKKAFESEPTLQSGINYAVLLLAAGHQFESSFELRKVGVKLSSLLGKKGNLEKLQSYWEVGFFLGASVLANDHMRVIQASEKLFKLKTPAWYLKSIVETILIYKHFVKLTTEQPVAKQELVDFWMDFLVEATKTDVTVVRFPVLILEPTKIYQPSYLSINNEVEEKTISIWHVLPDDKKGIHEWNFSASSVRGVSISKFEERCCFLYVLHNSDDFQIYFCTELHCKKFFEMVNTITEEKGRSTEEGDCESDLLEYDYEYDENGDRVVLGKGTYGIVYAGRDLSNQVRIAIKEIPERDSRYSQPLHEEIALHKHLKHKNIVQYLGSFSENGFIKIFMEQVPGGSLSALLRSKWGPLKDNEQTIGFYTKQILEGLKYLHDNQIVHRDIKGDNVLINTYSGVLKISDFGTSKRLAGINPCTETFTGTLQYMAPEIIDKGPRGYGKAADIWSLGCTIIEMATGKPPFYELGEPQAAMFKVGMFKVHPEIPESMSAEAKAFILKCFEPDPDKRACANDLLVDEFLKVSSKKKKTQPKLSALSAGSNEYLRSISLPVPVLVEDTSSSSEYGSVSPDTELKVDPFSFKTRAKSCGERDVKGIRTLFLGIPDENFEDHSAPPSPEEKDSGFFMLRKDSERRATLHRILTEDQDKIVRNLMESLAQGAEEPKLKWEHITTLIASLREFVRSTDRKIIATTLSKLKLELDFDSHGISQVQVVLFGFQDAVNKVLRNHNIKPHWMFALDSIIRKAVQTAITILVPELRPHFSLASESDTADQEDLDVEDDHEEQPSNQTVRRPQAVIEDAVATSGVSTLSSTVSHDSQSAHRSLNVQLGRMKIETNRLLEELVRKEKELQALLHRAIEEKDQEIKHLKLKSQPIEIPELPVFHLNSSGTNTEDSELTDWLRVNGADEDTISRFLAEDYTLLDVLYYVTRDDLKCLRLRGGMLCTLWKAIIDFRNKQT

MAPK1 (human) = MAPK1 (human) (UniProt P28482)
MAPK4 (human) = MAPK4 (human) (UniProt P31152)
MYO3A (human) = MYO3A (human) (UniProt Q8NEV4)
NEK5 (human) = NEK5 (human) (UniProt Q6P3R8)
NEK6 (human) = NEK6 (human) (UniProt Q9HC98)
NEK7 (human) = NEK7 (human) (UniProt Q8TDX7)
Chain of NEK7 (human) (Q8TDX7 whole entry, looked up): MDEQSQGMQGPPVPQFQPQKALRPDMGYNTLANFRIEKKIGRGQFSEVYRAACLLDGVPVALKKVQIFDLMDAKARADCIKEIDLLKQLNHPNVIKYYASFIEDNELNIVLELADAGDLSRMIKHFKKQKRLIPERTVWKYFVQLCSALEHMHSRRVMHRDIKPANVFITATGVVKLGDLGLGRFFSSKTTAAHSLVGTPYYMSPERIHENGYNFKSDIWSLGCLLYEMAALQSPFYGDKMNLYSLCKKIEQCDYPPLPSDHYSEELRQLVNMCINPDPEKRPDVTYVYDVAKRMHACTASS

NUAK2 (human) = NUAK2 (human) (UniProt Q9H093)
PAK3 (human) = PAK3 (human) (UniProt O75914)
PIK3C2B (human) = PIK3C2B (human) (UniProt O00750)
PIP5K1A (human) = PIP5K1A (human) (UniProt Q99755)
PRKCH (human) = PRKCH (human) (UniProt P24723)
PRKG1 (human) = PRKG1 (human) (UniProt Q13976)
PRKX (human) = PRKX (human) (UniProt P51817)
Chain of PRKX (human) (P51817 whole entry, looked up): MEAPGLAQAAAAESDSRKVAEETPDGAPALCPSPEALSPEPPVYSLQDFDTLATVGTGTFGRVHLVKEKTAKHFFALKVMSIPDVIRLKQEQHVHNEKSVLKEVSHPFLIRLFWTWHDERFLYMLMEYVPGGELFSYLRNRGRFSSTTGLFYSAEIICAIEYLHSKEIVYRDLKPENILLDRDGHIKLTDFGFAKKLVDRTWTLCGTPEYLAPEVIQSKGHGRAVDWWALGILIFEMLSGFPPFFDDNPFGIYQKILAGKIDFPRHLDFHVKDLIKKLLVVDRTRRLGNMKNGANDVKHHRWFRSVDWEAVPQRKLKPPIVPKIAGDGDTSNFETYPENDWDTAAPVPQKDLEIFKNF

ROS1 (human) = ROS1 (human) (UniProt P08922)
RPS6KA3 KD1 (human) = RPS6KA3 KD1 (human) (UniProt P51812)
RPS6KA4 KD1 (human) = RPS6KA4 KD1 (human) (UniProt O75676)
Chain of RPS6KA4 KD1 (human) (O75676 whole entry, looked up): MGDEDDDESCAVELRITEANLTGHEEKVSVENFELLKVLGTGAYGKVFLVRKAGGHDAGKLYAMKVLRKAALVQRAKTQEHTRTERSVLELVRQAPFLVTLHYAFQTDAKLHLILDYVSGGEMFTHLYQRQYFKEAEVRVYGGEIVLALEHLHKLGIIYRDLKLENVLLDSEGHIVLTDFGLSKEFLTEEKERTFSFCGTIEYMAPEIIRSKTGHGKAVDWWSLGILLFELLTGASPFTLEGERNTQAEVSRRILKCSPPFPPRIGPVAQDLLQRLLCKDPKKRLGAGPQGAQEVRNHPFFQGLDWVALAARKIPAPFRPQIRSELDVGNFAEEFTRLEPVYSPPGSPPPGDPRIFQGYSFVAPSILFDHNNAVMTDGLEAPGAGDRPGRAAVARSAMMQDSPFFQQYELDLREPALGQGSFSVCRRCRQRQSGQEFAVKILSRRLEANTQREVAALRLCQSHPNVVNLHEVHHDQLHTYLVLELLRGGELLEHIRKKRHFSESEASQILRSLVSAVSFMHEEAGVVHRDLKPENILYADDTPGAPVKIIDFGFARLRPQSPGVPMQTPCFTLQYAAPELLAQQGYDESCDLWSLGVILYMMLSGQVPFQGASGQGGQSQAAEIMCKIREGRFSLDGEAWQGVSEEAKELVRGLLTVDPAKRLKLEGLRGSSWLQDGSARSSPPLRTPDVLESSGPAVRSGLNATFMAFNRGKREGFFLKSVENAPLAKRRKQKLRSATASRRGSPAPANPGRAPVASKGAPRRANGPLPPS

RPS6KA5 KD1 (human) = RPS6KA5 KD1 (human) (UniProt O75582)
SIK2 (human) = SIK2 (human) (UniProt Q9H0K1)

Chain of CaMK1 (human) (Q14012 whole entry, looked up): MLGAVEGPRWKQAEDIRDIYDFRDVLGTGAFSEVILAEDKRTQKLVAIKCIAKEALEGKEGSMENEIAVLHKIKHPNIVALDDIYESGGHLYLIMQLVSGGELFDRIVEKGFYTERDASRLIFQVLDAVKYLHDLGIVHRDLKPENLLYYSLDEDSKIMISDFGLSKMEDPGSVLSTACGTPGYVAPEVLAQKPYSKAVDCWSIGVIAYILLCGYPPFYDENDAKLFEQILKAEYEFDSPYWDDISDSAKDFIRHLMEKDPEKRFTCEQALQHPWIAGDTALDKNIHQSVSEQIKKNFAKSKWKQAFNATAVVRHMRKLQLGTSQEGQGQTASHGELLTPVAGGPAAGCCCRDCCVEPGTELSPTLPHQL

| SMILES | kinase still bound, per cent of control [1] | kinase still bound, per cent of control (ACVR2B (human)) | kinase still bound, per cent of control (ALK (human)) | kinase still bound, per cent of control (CAMKK2 (human)) | kinase still bound, per cent of control (CDK11B (human)) | kinase still bound, per cent of control (CDKL2 (human)) | kinase still bound, per cent of control (CHEK1 (human)) | kinase still bound, per cent of control (CaMK1 (human)) | kinase still bound, per cent of control (DAPK1 (human)) | kinase still bound, per cent of control (DAPK3 (human)) | kinase still bound, per cent of control (DDR2 (human)) | kinase still bound, per cent of control (EPHA2 (human)) | kinase still bound, per cent of control (EPHB3 (human)) | kinase still bound, per cent of control (FER (human)) | kinase still bound, per cent of control (FGR (human)) | kinase still bound, per cent of control (GAK (human)) | kinase still bound, per cent of control (GSK3A (human)) | kinase still bound, per cent of control (IGF1R (human)) | kinase still bound, per cent of control [2] | kinase still bound, per cent of control (LIMK2 (human)) | other results |
| --- | --- | --- | --- | --- | --- | --- | --- | --- | --- | --- | --- | --- | --- | --- | --- | --- | --- | --- | --- | --- | --- |
| C=CC(=O)Nc1cccc(Oc2nc(Nc3ccc(N4CCN(C)CC4)cc3OC)ncc2Cl)c1 | 100% | 100% | 0.7% | 10% | 100% | 100% | 7% | 100% | 22% | 7.4% | 100% | 100% | 100% | 11% | 100% | 0.45% | 100% | 7.4% | 13% | 100% | kinase still bound, per cent of control (MAP2K1 (human)): 100%; kinase still bound, per cent of control (MAP3K5 (human)): 100%; kinase still bound, per cent of control (MAPK1 (human)): 100%; kinase still bound, per cent of control (MAPK4 (human)): 100%; kinase still bound, per cent of control (MYO3A (human)): 28%; kinase still bound, per cent of control (NEK5 (human)): 100%; kinase still bound, per cent of control (NEK6 (human)): 9%; kinase still bound, per cent of control (NEK7 (human)): 12%; kinase still bound, per cent of control (NUAK2 (human)): 0.3%; kinase still bound, per cent of control (PAK3 (human)): 100%; kinase still bound, per cent of control (PIK3C2B (human)): 100%; kinase still bound, per cent of control (PIP5K1A (human)): 11%; kinase still bound, per cent of control (PRKCH (human)): 100%; kinase still bound, per cent of control (PRKG1 (human)): 100%; kinase still bound, per cent of control (PRKX (human)): 100%; kinase still bound, per cent of control (ROS1 (human)): 5%; kinase still bound, per cent of control (RPS6KA3 KD1 (human)): 100%; kinase still bound, per cent of control (RPS6KA4 KD1 (human)): 100%; kinase still bound, per cent of control (RPS6KA5 KD1 (human)): 100%; kinase still bound, per cent of control (SIK2 (human)): 20% |
| O=C(NC1CC1)c1cccc(-c2ccc3c(NC(=O)C4CC4)n[nH]c3c2)c1 | 57% | 84% | 100% | 94% | 97% | 8.6% | 100% | 84% | 91% | 69% | 90% | 100% | 100% | 78% | 100% | 49% | 84% | 100% | 97% | 98% | kinase still bound, per cent of control (MAP2K1 (human)): 100%; kinase still bound, per cent of control (MAP3K5 (human)): 100%; kinase still bound, per cent of control (MAPK1 (human)): 100%; kinase still bound, per cent of control (MAPK4 (human)): 100%; kinase still bound, per cent of control (MYO3A (human)): 72%; kinase still bound, per cent of control (NEK5 (human)): 60%; kinase still bound, per cent of control (NEK6 (human)): 90%; kinase still bound, per cent of control (NEK7 (human)): 100%; kinase still bound, per cent of control (NUAK2 (human)): 24%; kinase still bound, per cent of control (PAK3 (human)): 60%; kinase still bound, per cent of control (PIK3C2B (human)): 83%; kinase still bound, per cent of control (PIP5K1A (human)): 28%; kinase still bound, per cent of control (PRKCH (human)): 100%; kinase still bound, per cent of control (PRKG1 (human)): 100%; kinase still bound, per cent of control (PRKX (human)): 100%; kinase still bound, per cent of control (ROS1 (human)): 100%; kinase still bound, per cent of control (RPS6KA3 KD1 (human)): 86%; kinase still bound, per cent of control (RPS6KA4 KD1 (human)): 100%; kinase still bound, per cent of control (RPS6KA5 KD1 (human)): 100%; kinase still bound, per cent of control (SIK2 (human)): 91% |
| CN(C)C/C=C/C(=O)Nc1cccc(Nc2ncc3c(n2)N(C)c2ccccc2C(=O)N3C)c1 | 0.75% | 9.4% | 51% | 8.1% | 100% | 92% | 8.5% | 49% | 52% | 45% | 11% | 82% | 88% | 100% | 4.2% | 13% | 69% | 100% | 7.4% | 94% | kinase still bound, per cent of control (MAP2K1 (human)): 82%; kinase still bound, per cent of control (MAP3K5 (human)): 100%; kinase still bound, per cent of control (MAPK1 (human)): 100%; kinase still bound, per cent of control (MAPK4 (human)): 100%; kinase still bound, per cent of control (MYO3A (human)): 100%; kinase still bound, per cent of control (NEK5 (human)): 58%; kinase still bound, per cent of control (NEK6 (human)): 73%; kinase still bound, per cent of control (NEK7 (human)): 100%; kinase still bound, per cent of control (NUAK2 (human)): 2.6%; kinase still bound, per cent of control (PAK3 (human)): 14%; kinase still bound, per cent of control (PIK3C2B (human)): 56%; kinase still bound, per cent of control (PIP5K1A (human)): 9.9%; kinase still bound, per cent of control (PRKCH (human)): 100%; kinase still bound, per cent of control (PRKG1 (human)): 100%; kinase still bound, per cent of control (PRKX (human)): 100%; kinase still bound, per cent of control (ROS1 (human)): 27%; kinase still bound, per cent of control (RPS6KA3 KD1 (human)): 29%; kinase still bound, per cent of control (RPS6KA4 KD1 (human)): 59%; kinase still bound, per cent of control (RPS6KA5 KD1 (human)): 100%; kinase still bound, per cent of control (SIK2 (human)): 9% |

— the kinase profiling compilation of Christmann-Franck et al. (2016)
